27 compounds from patent US9884818B2, “Sulphamoylpyrrolamide derivatives and the use thereof as medicaments for the treatment of hepatitis B” (Janssen Sciences Ireland UC, priority 2013, dated 2018) can be followed below.

Series [1] concerns HBV. Kind of series: Anti-HBV activity, HepG2.2.15 stable transfected cell line, HBV DNA from secreted virions by realtime PCR. The class given is cell-based. Particulars: Hepatitis B virus, HepG2.2.15, 144 h, HepG2.2.15 cells, 6 days of treatment, HBV DNA from secreted virions; read-out: HepG2 2.15 EC50.
Series [2] is described as follows: Cytotoxicity in HepG2 cells, Resazurin viability assay. Particulars: human, HepG2 cells, HepG2 4 days CC50 (μM), incubated for 4 days, Resazurin assay.
The test system of series [3] is HBV. Kind of series: Anti-HBV activity, HepG2.117 inducibly HBV producing cell line (Tet-off), intracellular HBV DNA by realtime PCR. In kind it is cell-based. The note with it: Hepatitis B virus, HepG2.117, 72 h, HepG2.117 cells, 3 days of treatment, intracellular HBV DNA; read-out: HepG2 117 EC50.

Consider `Cn1cc(S(=O)(=O)NC(C)(C)C)cc1C(=O)Nc1cc(F)c(F)c(F)c1` [Compound 68, 4-(tert-butylsulfamoyl)-1-methyl-N-(3,4,5-trifluorophenyl)pyrrole-2-carboxamide], for which the EC50 in series [1] and in series [3] was 70 nM in each case. The same compound yielded a CC50 at 4 days in series [2] of more than 25 µM.

With `[2H]C([2H])([2H])C(NS(=O)(=O)c1cc(C(=O)Nc2ccc(F)c(C)c2)n(C)c1)(C([2H])([2H])[2H])C([2H])([2H])[2H]` [Compound 69, N-(4-fluoro-3-methyl-phenyl)-1-methyl-4-[[2,2,2-trideuterio-1,1-bis(trideuteriomethyl)ethyl]sulfamoyl]pyrrole-2-carboxamide], the EC50 was 30 nM in series [1] and 70 nM in series [3]. This compound returned a half-maximal cytotoxic concentration (CC50) at 4 days in series [2] of more than 25 µM.

As to `[2H]c1cc(F)c(C)c([2H])c1NC(=O)c1cc(S(=O)(=O)NC(C([2H])([2H])[2H])(C([2H])([2H])[2H])C([2H])([2H])[2H])cn1C` [Compound 70, N-(2,6-dideuterio-4-fluoro-3-methyl-phenyl)-1-methyl-4-[[2,2,2-trideuterio-1,1-bis(trideuteriomethyl)ethyl]sulfamoyl]pyrrole-2-carboxamide], the EC50 in series [1] was determined as 20 nM; in series [3], 40 nM. For the same compound, the CC50 at 4 days in series [2] is more than 25 µM.

On to `[2H]c1c(F)c(F)c(F)c([2H])c1NC(=O)c1cc(S(=O)(=O)NC(C)(C)C)cn1C` [Compound 71, 4-(tert-butylsulfamoyl)-N-(2,6-dideuterio-3,4,5-trifluoro-phenyl)-1-methyl-pyrrole-2-carboxamide], for which the EC50 in series [1] came to 100 nM; in series [3] it was 130 nM. In series [2], this compound came in with a CC50 at 4 days of more than 25 µM.

Consider `Cn1cc(S(=O)(=O)NC2(C(F)(F)F)CC2)cc1C(=O)Nc1cc(F)c(F)c(Cl)c1` [Compound 72, N-(3-chloro-4,5-difluoro-phenyl)-1-methyl-4-[[1-(trifluoromethyl)-cyclopropyl]sulfamoyl]pyrrole-2-carboxamide], for which the EC50 in series [1] and in series [3] was 10 nM each time. For the same compound, the CC50 at 4 days in series [2] was more than 25 µM.

Regarding `Cn1cc(S(=O)(=O)NC2(C)COC2)c(F)c1C(=O)Nc1ccc(F)c(F)c1` [Compound 74, N-(3,4-difluorophenyl)-3-fluoro-1-methyl-4-[(3-methyloxetan-3-yl)-sulfamoyl]pyrrole-2-carboxamide], the EC50 in series [1] and in series [3] was 20 nM each time. Moreover, in series [2], the CC50 at 4 days is more than 25 µM.

On to `Cn1cc(S(=O)(=O)NC2(C)COC2)cc1C(=O)Nc1cc(Cl)c(F)c(Cl)c1` [Compound 75, N-(3,5-Dichloro-4-fluorophenyl)-1-methyl-4-[(3-methyloxetan-3-yl)sulfamoyl]-1H-pyrrole-2-carboxamide], for which the EC50 in series [1] and in series [3] was 180 nM in each case. In series [2], this compound came in with a CC50 at 4 days of more than 25 µM.

With `Cn1cc(S(=O)(=O)NC(C)(C)C)cc1C(=O)Nc1cc(Cl)c(F)c(Cl)c1` [Compound 76, 4-(tert-Butylsulfamoyl)-N-(3,5-dichloro-4-fluorophenyl)-1-methyl-1H-pyrrole-2-carboxamide], the EC50 in series [1] was found to be 180 nM; in series [3] it was 130 nM. Besides, the CC50 at 4 days in series [2] is more than 25 µM.

For `Cc1cc(NC(=O)c2cc(S(=O)(=O)NC3(C)COC3)cn2C)ccc1Cl` [Compound 77, N-(4-Chloro-3-methylphenyl)-1-methyl-4-[(3-methyloxetan-3-yl)sulfamoyl]-1H-pyrrole-2-carboxamide], the EC50 is 70 nM in series [1] and 180 nM in series [3]. In series [2], the CC50 at 4 days was more than 25 µM.

In the case of `Cn1cc(S(=O)(=O)NC2(C)COC2)cc1C(=O)Nc1ccc(F)c(Cl)c1` [Compound 78, N-(3-Chloro-4-fluorophenyl)-1-methyl-4-[(3-methyloxetan-3-yl)sulfamoyl]-1H-pyrrole-2-carboxamide], the EC50 was 20 nM in series [1] and 30 nM in series [3]. For the same compound, the CC50 at 4 days in series [2] was more than 25 µM.

As to `Cc1cc(NC(=O)c2cc(S(=O)(=O)NC3(C)COC3)cn2C)cc(C(F)(F)F)c1F` [Compound 79, N-[4-Fluoro-3-methyl-5-(trifluoromethyl)phenyl]-1-methyl-4-[(3-methyloxetan-3-yl)sulfamoyl]-1H-pyrrole-2-carboxamide], the EC50 amounted to 530 nM in series [1] and 460 nM in series [3]. The CC50 at 4 days in series [2] was more than 25 µM.

With `Cc1cc(NC(=O)c2cc(S(=O)(=O)NC3(C)COC3)cn2C)cc(C)c1F` [Compound 80, N-(4-Fluoro-3,5-dimethylphenyl)-1-methyl-4-[(3-methyloxetan-3-yl)sulfamoyl]-1H-pyrrole-2-carboxamide], the EC50 is 40 nM in series [1] and 90 nM in series [3]. For the same compound, the CC50 at 4 days in series [2] was more than 25 µM.

In the case of `Cn1cc(S(=O)(=O)NC2(C)COC2)cc1C(=O)Nc1ccc(F)c(Br)c1` [Compound 81], the EC50 in series [1] worked out at 10 nM; in series [3], 50 nM. The CC50 at 4 days in series [2] is more than 25 µM.

With `Cc1cc(NC(=O)c2cc(S(=O)(=O)NC3(C)COC3)cn2C)cc(C(F)(F)F)c1` [Compound 82, 1-Methyl-4-[(3-methyloxetan-3-yl)sulfamoyl]-N-[3-methyl-5-(trifluoro-methyl)phenyl]-1H-pyrrole-2-carboxamide], the EC50 in series [1] was determined as 170 nM; in series [3] it was 490 nM. Also, in series [2], the CC50 at 4 days is more than 25 µM.

As to `Cc1cc(NC(=O)c2cc(S(=O)(=O)NC3(C)COC3)cn2C)ccc1C#N` [Compound 83], the EC50 in series [1] was more than 1000 nM; in series [3] it was 1350 nM. The CC50 at 4 days in series [2] was more than 25 µM.

`Cn1cc(S(=O)(=O)NC2(C)COC2)cc1C(=O)Nc1ccc(Cl)c(F)c1` [Compound 84]: the EC50 was 460 nM in series [1] and 610 nM in series [3]. In series [2], this compound showed a CC50 at 4 days of more than 25 µM.

For the compound `Cc1c(F)ccc(NC(=O)c2cc(S(=O)(=O)NC3(C)COC3)cn2C)c1F` [Compound 85, N-(2,4-Difluoro-3-methylphenyl)-1-methyl-4-[(3-methyloxetan-3-yl)sulfamoyl]-1H-pyrrole-2-carboxamide], the EC50 in series [1] worked out at 30 nM; in series [3] it was 50 nM. In series [2], the CC50 at 4 days is more than 25 µM.

`Cn1cc(S(=O)(=O)NC2(C)COC2)cc1C(=O)Nc1ccc(F)c(OC(F)(F)F)c1` [Compound 86, N-[4-Fluoro-3-(trifluoromethoxy)phenyl]-1-methyl-4-[(3-methyloxetan-3-yl)sulfamoyl]-1H-pyrrole-2-carboxamide]: the EC50 in series [1] was 370 nM; in series [3], 350 nM. In series [2], the CC50 at 4 days is more than 25 µM.

With `Cn1cc(S(=O)(=O)NC2(C)COC2)cc1C(=O)Nc1cc(Cl)cc(C#N)c1` [Compound 87, N-(3-Chloro-5-cyanophenyl)-1-methyl-4-[(3-methyloxetan-3-yl)sulfamoyl]-1H-pyrrole-2-carboxamide], the EC50 in series [1] was 960 nM; in series [3], more than 1000 nM. Also, the CC50 at 4 days in series [2] was more than 25 µM.

For the compound `Cc1cc(NC(=O)c2c(C)c(S(=O)(=O)NC3(C)COC3)c(C)n2C)ccc1F` [Compound 88, N-(4-Fluoro-3-methylphenyl)-1,3,5-trimethyl-4-[(3-methyloxetan-3-yl)sulfamoyl]-1H-pyrrole-2-carboxamide], the EC50 in series [1] stood at 20 nM; in series [3], 30 nM. The CC50 at 4 days in series [2] is more than 25 µM.

Consider `Cc1cc(NC(=O)c2cc(S(=O)(=O)NC3(C)COC3)c(C)n2C)ccc1F` [Compound 89, N-(4-Fluoro-3-methylphenyl)-1,5-dimethyl-4-[(3-methyloxetan-3-yl)sulfamoyl]-1H-pyrrole-2-carboxamide], for which the EC50 in series [1] and in series [3] was 20 nM each time. Also, the CC50 at 4 days in series [2] is more than 25 µM.

`Cc1cc(NC(=O)c2c(C)c(S(=O)(=O)NC3(C)COC3)cn2C)ccc1F` [Compound 90, N-(4-Fluoro-3-methylphenyl)-1,3-dimethyl-4-[(3-methyloxetan-3-yl)sulfamoyl]-1H-pyrrole-2-carboxamide]: the EC50 in series [1] was determined as 50 nM; in series [3], 30 nM. In series [2], this compound had a CC50 at 4 days of more than 25 µM.

`Cn1cc(S(=O)(=O)NC2(C)CCOC2)cc1C(=O)Nc1ccc(F)c(F)c1` (stereo not drawn) [Compound 91, N-(3,4-Difluorophenyl)-1-methyl-4-[(3-methyltetrahydrofuran-3-yl)sulfamoyl]-1H-pyrrole-2-carboxamide]: the EC50 in series [1] was determined as 60 nM; in series [3] it was 40 nM. For the same compound, the CC50 at 4 days in series [2] is more than 25 µM.

With `C[C@@H](NS(=O)(=O)c1cc(C(=O)Nc2ccc(F)c(F)c2)n(C)c1)C(F)(F)F` [Compound 92, N-(3,4-Difluorophenyl)-1-methyl-4-{[(1R)-2,2,2-trifluoro-1-methylethyl]-sulfamoyl}-1H-pyrrole-2-carboxamide], the EC50 is 40 nM in series [1] and 30 nM in series [3]. In series [2], the CC50 at 4 days was more than 25 µM.

`C[C@H](NS(=O)(=O)c1cc(C(=O)Nc2ccc(F)c(F)c2)n(C)c1)C(F)(F)F` [Compound 93, N-(3,4-Difluorophenyl)-1-methyl-4-{[(1S)-2,2,2-trifluoro-1-methyl-ethyl]sulfamoyl}-1H-pyrrole-2-carboxamide]: the EC50 in series [1] and in series [3] was 30 nM throughout. In addition, the CC50 at 4 days in series [2] was more than 25 µM.

Regarding `Cc1cc(NC(=O)c2c(F)c(S(=O)(=O)NC3(C)COC3)cn2C)ccc1F` [Compound 94, 3-Fluoro-N-(4-fluoro-3-methylphenyl)-1-methyl-4-[(3-methyloxetan-3-yl)sulfamoyl]-1H-pyrrole-2-carboxamide], the values for the EC50 in series [1] and in series [3] were 9 nM and 10 nM, respectively. This compound returned a CC50 at 4 days in series [2] of more than 25 µM.

Regarding `Cn1cc(S(=O)(=O)NC(C)(C)C(F)(F)F)cc1C(=O)Nc1ccc(F)c(F)c1` [Compound 95, N-(3,4-Difluorophenyl)-1-methyl-4-[(2,2,2-trifluoro-1,1-dimethylethyl)-sulfamoyl]-1H-pyrrole-2-carboxamide], the EC50 in series [1] came out at 130 nM; in series [3], 60 nM. Further, in series [2], the CC50 at 4 days is more than 25 µM.
